Measured values as given in patent US11529319B2, “Methods and compositions for treating neurological conditions” (priority 2017, dated 2022).
“Also recorded” adds a separate entry of the source.

How the values were obtained:
Mef2c-het mice [1] = assay: Open field test (locomotor activity); assay type: in vivo, mouse; details: chronic treatment, 30-minute test
Excerpt: (§1) Mef2c heterozygous knockout (Mef2c-het) mice were created by crossing mice carrying the conventional exon 2-deleted allele of Mef2c (Mef2c^Δ2) with their WT littermates. All procedures for maintaining and using these mice were approved by the Institutional Animal Care and Use Committee (IACUC) at the Sanford Burnham Prebys Medical Discovery Institute. In this study, only male mice were used for the behavioral assays to insure uniformity (either with or without drug treatment). Chronic treatment with memantine, NitroSynapsin (both at 4.6 μmol/kg body weight) or vehicle (PBS) was administered via i.p. injection, twice a day for at least 3 months, starting at ˜2.5 weeks of age. This age was chosen because mice are still juveniles and thus treatment could begin in human at an equivalent stage.
Locomotor activity was measured in polycarbonate cages (42×22×20 cm) placed into frames (25.5×47 cm) mounted with two levels of photocell beams at 2 and 7 cm above the bottom of the cage (San Diego Instruments, San Diego, Calif.). These two sets of beams allowed recording of both horizontal (locomotion) and vertical (rearing) behavior. A thin layer of bedding material was applied to the bottom of the cage. Mice were tested for 30 or 120 min depending on the exact test.

Mef2c-het mice [2] = assay: Hole-board exploration test; assay type: in vivo, mouse; details: chronic treatment
Excerpt: as §1
The apparatus consisted of a Plexiglas cage (32×32×30 cm) with 16 holes in a format of 4×4 (each 3 cm in diameter) equally spaced on an elevated floor. The explorative activity including the number of head-dips and the time spent head-dipping were measured for 5 min.

Mef2c-het mice [3] = details: mouse, in vivo
Excerpt: as §1, with “stage. […]” for “stage.”
For extracellular field recordings, concentric, bipolar tungsten electrodes were used to activate Schaffer collateral/commissural (SC) fibers in the hippocampal CA1 region. […] For baseline recordings, slices were stimulated at 0.033 Hz for 20 min at stimulation intensities of 30-40% of those used to elicit the largest measured fEPSP amplitude. […] Data were sampled at 5 kHz and analyzed using the Clampfit 10 program (Molecular Devices).
Synaptic activity was recorded from dentate gyrus (DG) granule neurons using the whole-cell voltage-clamp technique. […]

[4] = system: p38 MAPK/MAPKAPK2/TSC2/mTORC1/S6K1 cascade; assay: Western blots of eNMDAR-triggered signaling; assay type: cell-based; details: compared with Memantine
Excerpt: This experiment was replicated 4 times with similar results and quantified in FIG. 20C.

Tsc2+/- mice [5] = assay: Quantitative confocal immunohistochemistry of synaptophysin (SY38) in hippocampus; assay type: in vivo, mouse; details: i.p. loading 92 μmol/kg then 4.6 μmol/kg twice daily, two and a half days
Excerpt: To determine the effects of […] antagonists on the brain histology of Tsc2^+/- mice, quantitative confocal immunohistochemistry was used to analyze coronal brain slices from 3-month-old wild-type (WT) and Tsc2^+/- mice that had been treated for two and a half days with vehicle, memantine or NitroSynapsin. Tsc2+/- mice on the C57Bl/6J background received via the intraperitoneal route either vehicle or a loading dose of 92 μmol/kg of memantine or NitroSynapsin, followed by 4.6 μmol/kg of drug twice daily for two-and-a-half-days, with the last dose 3 hours prior to the behavioral training session (for a total of five drug injections). This dosing regimen yields an effective concentration of drug at NMDARs in the brain of 1-10 μM.

Tsc2+/- mice [6] = assay: Fear conditioning test; assay type: in vivo, mouse; details: two-and-a-half-day treatment, last dose 3 hours before training
Excerpt: To determine the effects of eNMDAR antagonists on the brain histology of Tsc2^+/− mice, quantitative confocal immunohistochemistry was used to analyze coronal brain slices from 3-month-old wild-type (WT) and Tsc2^+/− mice that had been treated for two and a half days with vehicle, memantine or NitroSynapsin. Tsc2+/− mice on the C57Bl/6J background received via the intraperitoneal route either vehicle or a loading dose of 92 μmol/kg of memantine or NitroSynapsin, followed by 4.6 μmol/kg of drug twice daily for two-and-a-half-days, with the last dose 3 hours prior to the behavioral training session (for a total of five drug injections). This dosing regimen yields an effective concentration of drug at NMDARs in the brain of 1-10 μM.
Fear conditioning tests were performed on three-month-old Tsc2^+/+ and Tsc2^+/− mice to explore the effects of eNMDAR antagonists on anxiety, and learning and memory deficits in Tsc2^+/− mice. Vehicle, memantine or NitroSynapsin were administered for two and a half days, with the last dose of drug occurring 3-hours prior to the first training session. […] Freezing time of three-month-old WT and Tsc2^+/− transgenic mice treated with vehicle, memantine or NitroSynapsin in fear-conditioning trials. […] Values are mean+s.e.m. (n=7-12 mice per group). […]

[7] = system: MeCP2 knockout (KO) mouse model of Rett syndrome; assay: Rotarod test; assay type: in vivo; details: MeCP2 KO mice
Procedure: Mice were placed on the stationary cylinder and the cylinder then slowly accelerated to 10 revolutions/min. The total time at 10 rpm before a fall from the cylinder was recorded.

effect on EPSCs in WT mice (Mef2c-het mice [3]): no effects
effect on LTP in WT mice (Mef2c-het mice [3]): no effects
Compound: CCC12CC3(N)CC(CC)(C1)CC(O[N+](=O)[O-])(C3)C2 [NitroSynapsin]
open field center time / center activity (Mef2c-het mice [1]): rescued by chronic treatment with NitroSynapsin; also recorded: rescued by treatment with N
head-dips per hole (repetitive behavior) (Mef2c-het mice [2]): corrected the abnormal repetitive behavior
eNMDAR-triggered signaling that inactivates TSC2 (p38 MAPK-TSC-Rheb-mTORC1-S6K1 pathway) [4]: correction of activity
eNMDAR-triggered signaling that inactivates TSC2 (p38 MAPK-TSC-Rheb-mTORC1-S6K1 pathway) ([4]; listed as NitroMemantine): to a greater degree than Memantine
synaptophysin (SY38) staining in hippocampus (% area) (Tsc2+/- mice [5]): all improved; also recorded: significantly more staining; also recorded: reversed the synaptic loss; also recorded: raised the synaptic signal to WT levels
context discrimination (freezing time, training vs novel context) (Tsc2+/- mice [6]): all improved; also recorded: normalizing context discrimination; also recorded: improved the ability to discriminate context in Tsc2^+/− mice to normal WT levels; also recorded: normalized context discrimination
rotarod performance (time at 10 rpm before a fall) [7]: improved motor behavior; also recorded: significantly improved motor performance
